Converted amounts (≈) assume the structure as drawn.
Legend:
[1] = target: C-C chemokine receptor type 2 (Homo sapiens, UniProt P41597); assay: Displacement of [125I]-MCP1 from human CCR2 receptor in THP1 cells after 2 hrs by scintillation counting; assay type: cell-based, THP-1
[2] = target: Voltage-gated inwardly rectifying potassium channel KCNH2 (Homo sapiens, UniProt Q12809)
Description: Displacement of [3H]-astemizole from human ERG in HEK293 cells after 1 hrs by scintillation counting

hERG (KCNH2) = hERG (KCNH2) (Homo sapiens, UniProt Q12809); assay: in vitro; conditions: HEK293 cells that express hERG
hERG (KCNH2), sequence (Q12809 whole entry): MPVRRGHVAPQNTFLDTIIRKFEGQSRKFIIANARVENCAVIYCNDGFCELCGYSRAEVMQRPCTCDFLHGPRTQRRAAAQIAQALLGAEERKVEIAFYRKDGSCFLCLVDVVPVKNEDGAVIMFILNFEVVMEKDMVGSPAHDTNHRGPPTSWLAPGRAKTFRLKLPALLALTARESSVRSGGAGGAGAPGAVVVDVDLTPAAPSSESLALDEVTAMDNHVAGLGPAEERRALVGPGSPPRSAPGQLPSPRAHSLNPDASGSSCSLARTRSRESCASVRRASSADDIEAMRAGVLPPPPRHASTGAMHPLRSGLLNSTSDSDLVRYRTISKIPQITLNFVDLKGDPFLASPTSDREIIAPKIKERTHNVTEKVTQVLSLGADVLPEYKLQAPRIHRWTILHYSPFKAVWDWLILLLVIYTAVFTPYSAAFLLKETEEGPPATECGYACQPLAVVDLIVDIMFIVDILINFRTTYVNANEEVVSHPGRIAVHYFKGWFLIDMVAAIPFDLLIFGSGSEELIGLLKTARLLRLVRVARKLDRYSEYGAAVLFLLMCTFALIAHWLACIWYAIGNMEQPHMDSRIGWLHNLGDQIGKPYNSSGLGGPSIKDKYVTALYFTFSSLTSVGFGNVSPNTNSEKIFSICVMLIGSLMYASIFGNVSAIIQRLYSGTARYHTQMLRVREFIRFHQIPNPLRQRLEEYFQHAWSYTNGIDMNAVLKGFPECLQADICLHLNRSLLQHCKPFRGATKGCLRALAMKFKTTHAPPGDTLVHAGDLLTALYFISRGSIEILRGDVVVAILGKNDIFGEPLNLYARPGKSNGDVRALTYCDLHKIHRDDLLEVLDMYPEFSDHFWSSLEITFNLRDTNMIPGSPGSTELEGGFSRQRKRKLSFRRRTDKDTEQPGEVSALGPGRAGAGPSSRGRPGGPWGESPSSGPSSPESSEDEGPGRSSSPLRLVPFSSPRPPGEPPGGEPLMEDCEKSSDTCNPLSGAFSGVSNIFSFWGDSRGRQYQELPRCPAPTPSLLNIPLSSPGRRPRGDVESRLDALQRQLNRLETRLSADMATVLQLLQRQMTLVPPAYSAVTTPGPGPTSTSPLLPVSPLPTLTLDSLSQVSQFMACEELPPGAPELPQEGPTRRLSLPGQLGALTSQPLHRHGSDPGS

[3] = Efflux ratio of permeability from basolateral to apical side over apical to basolateral side in human Caco2 cell membrane; assay type: ADME, cell-based; conditions: Caco-2
[4] = Kinetic solubility of the compound at pH 2; assay type: physicochemical; conditions: buffer, read-out: Kinetic_solubility
[5] = Apparent permeability of the compound from apical to basolateral side in human Caco2 cell membrane; assay type: ADME, cell-based; conditions: Caco-2
[6] = Apparent permeability of the compound from basolateral to apical side in human Caco2 cell membrane; assay type: ADME, cell-based; conditions: Caco-2

C-C chemokine receptor type 2, sequence (P41597 whole entry): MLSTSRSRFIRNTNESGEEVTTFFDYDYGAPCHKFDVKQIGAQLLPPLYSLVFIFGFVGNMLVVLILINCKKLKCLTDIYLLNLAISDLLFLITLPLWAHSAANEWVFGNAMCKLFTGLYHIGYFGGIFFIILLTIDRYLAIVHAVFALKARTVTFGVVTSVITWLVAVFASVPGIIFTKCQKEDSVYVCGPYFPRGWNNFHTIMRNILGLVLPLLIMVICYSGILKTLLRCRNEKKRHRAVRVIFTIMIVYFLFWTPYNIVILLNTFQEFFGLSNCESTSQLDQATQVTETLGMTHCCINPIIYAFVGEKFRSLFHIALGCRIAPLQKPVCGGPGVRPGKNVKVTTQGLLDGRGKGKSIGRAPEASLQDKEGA
Voltage-gated inwardly rectifying potassium channel KCNH2, sequence (Q12809 whole entry): as the sequence (Q12809 whole entry) above

SMILES	IC50 [1]	IC50 [2]	also measured
CCOC[C@H]1CC[C@@H](N2CC(NC(=O)CNc3nn(C)c4ccc(C(F)(F)F)cc34)C2)CC1	27 nM	5600 nM	–
CCOC(=O)[C@H]1CC[C@@H](N2CC(NC(=O)CNc3nn(S(C)(=O)=O)c4ccc(C(F)(F)F)cc34)C2)CC1	920 nM	25000 nM	–
O=C(CNc1nn(CCO)c2ccc(C(F)(F)F)cc12)NC1CN([C@H]2CC[C@@H](c3nccs3)CC2)C1	29 nM	–	–
CCOC(=O)[C@H]1CC[C@@H](N2CC(NC(=O)CNc3nn(CC(F)(F)F)c4ccc(C(F)(F)F)cc34)C2)CC1	230 nM	2500 nM	–
COc1ccc([C@]2(O)CC[C@H](N3CC(NC(=O)CNc4n[nH]c5ccc(C(F)(F)F)cc45)C3)CC2)cn1	16 nM	32000 nM	inhibition at 5 min, 3 µM (hERG (KCNH2)): 30%
O=C(CNc1noc2ccc(C(F)(F)F)cc12)NC1CN([C@H]2CC[C@@H](c3ccc4c(c3)OCO4)CC2)C1	36 nM	1900 nM	–
Cn1nc(NCC(=O)NC2CN([C@H]3CC[C@@H](C4CCCCC4)CC3)C2)c2cc(C(F)(F)F)ccc21	120 nM	–	–
O=C(CNc1n[nH]c2ccc(C(F)(F)F)cc12)NC1CN([C@H]2CC[C@@H](c3ccccc3)CC2)C1 (stereo in doubt; 5)	–	–	IC50 ([1]; thp-1): 12 nM
CCOC(=O)[C@H]1CC[C@@H](N2CC(NC(=O)CNc3noc4ccc(C(F)(F)F)cc34)C2)CC1	29 nM	–	–
Cc1ccc([C@H]2CC[C@@H](N3CC(NC(=O)CNc4n[nH]c5ccc(C(F)(F)F)cc45)C3)CC2)cn1	6 nM	27000 nM	inhibition at 5 min, 3 µM (hERG (KCNH2)): 23%
O=C(CNc1n[nH]c2ccc(C(F)(F)F)cc12)NC1CN([C@H]2CC[C@@H](O)CC2)C1	530 nM	30000 nM	–
Cn1nc(NCC(=O)NC2CN([C@H]3CC[C@@H](C#N)CC3)C2)c2cc(C(F)(F)F)ccc21	330 nM	–	–
O=C(CSc1n[nH]c2ccc(C(F)(F)F)cc12)NC1CN([C@H]2CC[C@@H](c3ccccc3)CC2)C1	290 nM	–	–
O=C(CNc1n[nH]c2ccc(C(F)(F)F)cc12)NC1CN([C@H]2CC[C@@H](c3ccccc3)CC2)C1 (stereo in doubt; 13a)	12 nM	1200 nM	–
CCOC(=O)[C@H]1CC[C@@H](N2CC(NC(=O)CNc3n[nH]c4ccc(C(F)(F)F)cc34)C2)CC1	27 nM	9100 nM	–
CCOC(=O)[C@H]1CC[C@@H](N2CC(NC(=O)CNc3nn(C4CCCC4)c4ccc(C(F)(F)F)cc34)C2)CC1	650 nM	4100 nM	–
CCOC(=O)[C@H]1CC[C@@H](N2CC(NC(=O)CNc3nn(C(N)=O)c4ccc(C(F)(F)F)cc34)C2)CC1	56 nM	20000 nM	efflux ratio [3]: 10.9; solubility kinetic [4]: 8.9 µM (≈ 4.54 µg/mL); Papp A→B [5]: 0.32 ×10⁻⁶ cm/s; Papp B→A [6]: 3.5 ×10⁻⁶ cm/s
O=C(CNc1n[nH]c2ccc(C(F)(F)F)cc12)NC1CN([C@H]2CC[C@@H](n3ccccc3=O)CC2)C1	63 nM	–	–
Cn1nc(NCC(=O)NC2CN([C@H]3CC[C@@H](C(N)=O)CC3)C2)c2cc(C(F)(F)F)ccc21	510 nM	32000 nM	–

Now from value to molecule, other results behind:

IC50 [1]	SMILES	IC50 [2]	also measured
6 nM	O=C(CNc1n[nH]c2ccc(C(F)(F)F)cc12)NC1CN([C@H]2CC[C@@H](c3ccc4c(c3)OCO4)CC2)C1	–	–
10000 nM	C#C[C@H]1CC[C@@H](N2CC(NC(=O)CNc3nn(C)c4ccc(C(F)(F)F)cc34)C2)CC1	> 50000 nM	–
5400 nM	O=C(Cn1[nH]c2ccc(C(F)(F)F)cc2c1=O)NC1CN([C@H]2CC[C@@H](c3ccccc3)CC2)C1	–	–
82 nM	NC(=O)n1nc(NCC(=O)NC2CN([C@H]3CC[C@@H](c4ccc5c(c4)OCO5)CC3)C2)c2cc(C(F)(F)F)ccc21	12000 nM	efflux ratio [3]: 16.2; solubility kinetic [4]: 3.5 µM (≈ 1.95 µg/mL); Papp A→B [5]: 0.15 ×10⁻⁶ cm/s; Papp B→A [6]: 2.44 ×10⁻⁶ cm/s
2080 nM	CS(=O)(=O)N[C@H]1CC[C@@H](N2CC(NC(=O)CNc3n[nH]c4ccc(C(F)(F)F)cc34)C2)CC1	–	–
55 nM	CC(C)(C)NC(=O)n1nc(NCC(=O)NC2CN([C@H]3CC[C@@H](c4ccc5c(c4)OCO5)CC3)C2)c2cc(C(F)(F)F)ccc21	–	–
44 nM	Cn1nc(NCC(=O)NC2CN([C@H]3CC[C@@H](CO)CC3)C2)c2cc(C(F)(F)F)ccc21	–	–
> 25000 nM	N[C@H]1CC[C@@H](N2CC(NC(=O)CNc3n[nH]c4ccc(C(F)(F)F)cc34)C2)CC1	> 50000 nM	–
22 nM	C=CCn1nc(NCC(=O)NC2CN([C@H]3CC[C@@H](C(=O)OCC)CC3)C2)c2cc(C(F)(F)F)ccc21	–	–
13 nM	CCOC(=O)[C@H]1CC[C@@H](N2CC(NC(=O)CNc3nn(C)c4ccc(C(F)(F)F)cc34)C2)CC1	8000 nM	–
12 nM	NC(=O)Cc1ccc([C@H]2CC[C@@H](N3CC(NC(=O)CNc4n[nH]c5ccc(C(F)(F)F)cc45)C3)CC2)cc1	9500 nM	–
510 nM	O=C(COc1n[nH]c2ccc(C(F)(F)F)cc12)NC1CN([C@H]2CC[C@@H](c3ccccc3)CC2)C1	–	–
13 nM	Cn1nc(NCC(=O)NC2CN([C@H]3CC[C@@H](c4ccc5c(c4)OCO5)CC3)C2)c2cc(C(F)(F)F)ccc21	–	–
370 nM	CC(C)[C@H]1CC[C@@H](N2CC(NC(=O)CNc3n[nH]c4ccc(C(F)(F)F)cc34)C2)CC1	6200 nM	–
2600 nM	Cn1nc(NCC(=O)NC2CN([C@H]3CC[C@@H](C(=O)O)CC3)C2)c2cc(C(F)(F)F)ccc21	25000 nM	–
480 nM	Cn1nc(NCC(=O)NC2CN([C@H]3CC[C@@H](c4ncco4)CC3)C2)c2cc(C(F)(F)F)ccc21	–	–
